Results published in ChEMBL document CHEMBL5543167, “Design, Synthesis, and Biological Evaluation of Novel EGFR PROTACs Targeting C797S Mutation” (J Med Chem, 2024).

Key:
[1] = biological target: Protein cereblon/Epidermal growth factor receptor (Homo sapiens, UniProt P00533+Q96SW2, T790M/C797S/L858R); test: PROTAC activity at CRBN/EGFR L858R/T790M/C797S mutant in human H1975-TM cells assessed as induction of EGFR degradation incubated for 24 hrs by Western blot analysis; type: cell-based
[2] = tested on: Protein cereblon/Epidermal growth factor receptor (Homo sapiens), P00533+Q96SW2 [L858R,T790M,C797S]; test: PROTAC activity at CRBN/EGFR L858R/T790M/C797S mutant in human H1975-TM cells assessed as induction of EGFR degradation by measuring maximal efficacy at 300 nM incubated for 24 hrs by Western blot analysis relative to control; type: cell-based
[3] = Antiproliferative activity against human HI975-TM cells harboring EGFR L858R/T790M/C797S mutant assessed as inhibition of cell growth incubated for 72 hrs by CCK-8 assay; type: functional, cell-based; conditions: H1975-TM
[4] = biological target: von Hippel-Lindau disease tumor suppressor/Epidermal growth factor receptor (Homo sapiens, UniProt P00533+P40337, L858R); test: PROTAC activity at VHL/EGFR L858R mutant in human NCI-H3255 cells assessed as induction of EGFR degradation incubated for 24 hrs by immunoblotting analysis; type: cell-based
Chain of von Hippel-Lindau disease tumor suppressor/Epidermal growth factor receptor (P00533 25-1210 L858R limits assumed, stated change not applied): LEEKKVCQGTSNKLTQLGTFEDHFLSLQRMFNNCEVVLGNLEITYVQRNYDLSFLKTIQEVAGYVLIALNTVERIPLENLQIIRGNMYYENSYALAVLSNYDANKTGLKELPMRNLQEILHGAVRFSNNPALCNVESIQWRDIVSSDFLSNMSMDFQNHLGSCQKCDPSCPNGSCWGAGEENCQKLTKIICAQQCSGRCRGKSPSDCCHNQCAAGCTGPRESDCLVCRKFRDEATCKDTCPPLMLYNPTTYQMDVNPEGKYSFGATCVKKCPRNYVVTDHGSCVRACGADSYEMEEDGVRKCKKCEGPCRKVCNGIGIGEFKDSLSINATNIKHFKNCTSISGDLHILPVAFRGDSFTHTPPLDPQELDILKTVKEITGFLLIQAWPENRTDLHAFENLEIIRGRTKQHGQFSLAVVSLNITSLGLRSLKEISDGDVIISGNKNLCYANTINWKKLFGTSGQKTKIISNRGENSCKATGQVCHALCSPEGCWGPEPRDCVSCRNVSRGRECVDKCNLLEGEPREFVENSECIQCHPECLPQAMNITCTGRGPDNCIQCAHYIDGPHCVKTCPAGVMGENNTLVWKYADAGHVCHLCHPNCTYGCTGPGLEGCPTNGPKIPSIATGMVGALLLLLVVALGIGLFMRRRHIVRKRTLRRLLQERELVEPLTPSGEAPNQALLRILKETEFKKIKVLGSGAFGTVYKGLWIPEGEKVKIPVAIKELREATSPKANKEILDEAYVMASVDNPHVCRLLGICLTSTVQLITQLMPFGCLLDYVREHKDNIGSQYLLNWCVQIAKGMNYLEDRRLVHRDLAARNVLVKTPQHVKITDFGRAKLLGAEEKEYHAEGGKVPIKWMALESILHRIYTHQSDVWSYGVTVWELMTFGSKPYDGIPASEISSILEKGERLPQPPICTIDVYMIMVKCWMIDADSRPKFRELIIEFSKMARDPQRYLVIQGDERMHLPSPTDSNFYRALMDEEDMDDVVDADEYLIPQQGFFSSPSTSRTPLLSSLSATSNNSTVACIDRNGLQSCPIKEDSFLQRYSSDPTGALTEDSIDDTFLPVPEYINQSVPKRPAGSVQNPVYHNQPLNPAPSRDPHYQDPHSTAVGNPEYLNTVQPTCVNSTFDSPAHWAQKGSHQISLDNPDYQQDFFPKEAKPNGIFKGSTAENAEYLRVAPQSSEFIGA
Chain of von Hippel-Lindau disease tumor suppressor/Epidermal growth factor receptor (P40337 whole entry, stated change not applied): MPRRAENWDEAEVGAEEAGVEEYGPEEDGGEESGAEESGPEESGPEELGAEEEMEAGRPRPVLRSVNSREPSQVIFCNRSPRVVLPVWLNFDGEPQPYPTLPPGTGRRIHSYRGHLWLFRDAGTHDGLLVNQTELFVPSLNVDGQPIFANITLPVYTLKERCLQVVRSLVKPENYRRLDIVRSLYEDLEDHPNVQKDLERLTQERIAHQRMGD

[5] = tested on: Protein cereblon/Epidermal growth factor receptor (Homo sapiens), P00533+Q96SW2 [L858R,T790M,C797S]; test: Induction of EGFR L858R/T790M/C797S mutant in human H1975-TM cells assessed as remaining activity at 1 uM incubated for 6 hrs by Western blot analysis (reference value: 100%); type: cell-based
[6] = tested on: Protein cereblon/Epidermal growth factor receptor (Homo sapiens), P00533+Q96SW2 [L858R,T790M,C797S]; test: PROTAC activity at CRBN/EGFR L858R/T790M/C797S mutant in human H1975-TM cells assessed as induction of EGFR degradation by measuring remaining activity at 100 nM incubated for 24 hrs by Western blot analysis (reference value: 100%); type: cell-based
[7] = biological target: Epidermal growth factor receptor (Homo sapiens, UniProt P00533, C797S/L858R/T790M); test: Binding affinity to EGFR L858R/T790M/C797S mutant (unknown origin) assessed as dissociation constant incubated for 10 mins under dark condition by MST analysis
Chain of Epidermal growth factor receptor (P00533 25-1210 T790M/C797S/L858R limits assumed): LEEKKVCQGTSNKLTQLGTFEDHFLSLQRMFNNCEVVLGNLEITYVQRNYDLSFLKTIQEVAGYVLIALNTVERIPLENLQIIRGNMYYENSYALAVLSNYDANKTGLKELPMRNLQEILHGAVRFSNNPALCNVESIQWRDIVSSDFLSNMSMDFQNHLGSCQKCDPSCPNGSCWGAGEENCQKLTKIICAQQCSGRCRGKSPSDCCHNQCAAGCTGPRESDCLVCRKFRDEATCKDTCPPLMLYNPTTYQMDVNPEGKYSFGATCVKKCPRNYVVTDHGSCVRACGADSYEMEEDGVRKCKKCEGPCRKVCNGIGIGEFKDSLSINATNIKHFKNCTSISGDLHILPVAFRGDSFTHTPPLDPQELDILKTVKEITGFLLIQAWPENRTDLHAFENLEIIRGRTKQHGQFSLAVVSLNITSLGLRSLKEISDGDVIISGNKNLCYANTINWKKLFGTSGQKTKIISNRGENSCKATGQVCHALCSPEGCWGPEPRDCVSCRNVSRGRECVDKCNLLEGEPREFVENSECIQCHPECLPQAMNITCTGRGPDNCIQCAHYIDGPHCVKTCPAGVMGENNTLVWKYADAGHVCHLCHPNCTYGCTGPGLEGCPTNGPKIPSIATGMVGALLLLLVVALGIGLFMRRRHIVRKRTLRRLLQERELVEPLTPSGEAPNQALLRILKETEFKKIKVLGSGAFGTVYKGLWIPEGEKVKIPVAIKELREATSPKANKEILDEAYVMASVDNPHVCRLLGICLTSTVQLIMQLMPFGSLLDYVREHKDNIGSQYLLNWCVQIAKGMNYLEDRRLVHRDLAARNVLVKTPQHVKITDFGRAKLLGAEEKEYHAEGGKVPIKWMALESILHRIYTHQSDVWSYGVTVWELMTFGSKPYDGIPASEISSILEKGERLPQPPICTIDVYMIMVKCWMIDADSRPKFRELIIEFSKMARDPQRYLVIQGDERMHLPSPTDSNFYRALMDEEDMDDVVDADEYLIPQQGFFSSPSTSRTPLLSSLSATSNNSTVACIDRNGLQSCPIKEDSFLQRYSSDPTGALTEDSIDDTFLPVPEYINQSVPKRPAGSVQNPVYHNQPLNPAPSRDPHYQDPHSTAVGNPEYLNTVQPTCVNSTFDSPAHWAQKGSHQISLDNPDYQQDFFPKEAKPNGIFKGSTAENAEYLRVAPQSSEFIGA

[8] = tested on: A549; test: Antiproliferative activity against human A549 cells harboring wildtype EGFR assessed as inhibition of cell proliferation incubated for 72 hrs by CCK8 assay; type: functional, cell-based; conditions: A549, 72 h
[9] = Antiproliferative activity against human PC-9-TM cells harboring EGFR exon 19 deletion/T790M/[…] mutant assessed as inhibition of cell proliferation incubated for 72 hrs by CCK8 assay; type: functional, cell-based
[10] = tested on: NCI-H1975; test: Antiproliferative activity against human NCI-H1975 cells harboring EGFR L858R/T790M mutant assessed as inhibition of cell proliferation incubated for 72 hrs by CCK8 assay; type: functional, cell-based; conditions: NCI-H1975, 72 h
[11] = tested on: PC-9; test: Antiproliferative activity against human PC-9 cells harboring EGFR exon 19 deletion mutant assessed as inhibition of cell proliferation incubated for 72 hrs by CCK8 assay; type: functional, cell-based; conditions: PC-9, 72 h
[12] = biological target: Protein cereblon/Epidermal growth factor receptor (Homo sapiens, UniProt P00533+Q96SW2, T790M/L858R); test: PROTAC activity at CRBN/EGFR L858R/T790M double mutant in human NCI-H1975 cells assessed as induction of EGFR degradation; type: cell-based

Chain of Protein cereblon/Epidermal growth factor receptor (Homo sapiens, UniProt P00533+Q96SW2, T790M/C797S/L858R) (P00533 25-1210 T790M/C797S/L858R limits assumed, stated change not applied): as the sequence (P00533 25-1210 T790M/C797S/L858R limits assumed) above
Chain of Protein cereblon/Epidermal growth factor receptor (Homo sapiens, UniProt P00533+Q96SW2, T790M/C797S/L858R) (Q96SW2 whole entry, stated change not applied): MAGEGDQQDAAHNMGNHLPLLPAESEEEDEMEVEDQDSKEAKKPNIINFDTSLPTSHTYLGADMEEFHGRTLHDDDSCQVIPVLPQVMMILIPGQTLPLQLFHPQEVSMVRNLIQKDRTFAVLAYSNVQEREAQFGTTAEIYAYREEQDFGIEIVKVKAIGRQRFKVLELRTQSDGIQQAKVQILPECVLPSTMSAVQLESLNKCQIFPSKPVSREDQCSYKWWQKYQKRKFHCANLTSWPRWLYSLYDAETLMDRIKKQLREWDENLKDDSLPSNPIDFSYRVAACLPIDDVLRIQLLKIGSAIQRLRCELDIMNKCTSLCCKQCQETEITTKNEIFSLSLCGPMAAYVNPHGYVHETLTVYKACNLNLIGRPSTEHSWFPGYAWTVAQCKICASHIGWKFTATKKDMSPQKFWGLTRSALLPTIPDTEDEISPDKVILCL

SMILES | DC50 [1] | Emax [2] | IC50 [3] | further results
CCS(=O)(=O)n1cc(-c2nc(Nc3ccc(N4CCN(C(=O)CCC(=O)Nc5cccc6c5CN(C5CCC(=O)NC5=O)C6=O)CC4)cc3)ncc2C(F)(F)F)c2ccccc21 (stereo not drawn) | 180 nM | 88.4% | 419 nM | –
CCS(=O)(=O)n1cc(-c2nc(Nc3ccc(N4CCN(CCCCCC(=O)Nc5cccc6c5CN(C5CCC(=O)NC5=O)C6=O)CC4)cc3)ncc2C(F)(F)F)c2ccccc21 (stereo not drawn) | 59.4 nM | 94.6% | 62.9 nM | –
C=CC(=O)Nc1cc(Nc2nccc(-c3cn(C)c4ccccc34)n2)c(OC)cc1N(C)CCN(C)C [OSIMERTINIB] | – | – | 2240 nM | –
COc1cc2ncnc(Nc3ccc(F)c(Cl)c3)c2cc1OCCCCCOCCOCCC(=O)N[C@H](C(=O)N1C[C@H](O)C[C@H]1C(=O)NCc1ccc(-c2scnc2C)cc1)C(C)(C)C | – | – | – | DC50 [4]: 39 nM
CCS(=O)(=O)n1cc(-c2nc(Nc3ccc4c(ccn4CCN(C)C)c3)ncc2C(F)(F)F)c2ccccc21 | – | – | 16.3 nM | –
CCS(=O)(=O)N1C=C(c2nc(Nc3ccc(N4CCN(CCCCC(=O)Nc5cccc6c5CN(C5CCC(=O)NC5=O)C6=O)CC4)cc3)ncc2C(F)(F)F)C2CC=CC=C21 (stereo not drawn) | – | > 95% | 93.5 nM | –
CC(C)C[C@@H](C=O)NC(=O)[C@H](CC(C)C)NC(=O)[C@H](CC(C)C)NC(=O)OCc1ccccc1 | – | – | – | Activity [5]: 80.3%
CCS(=O)(=O)n1cc(-c2nc(Nc3ccc(N4CCN(CCCCCCC(=O)Nc5cccc6c5CN(C5CCC(=O)N(C)C5=O)C6=O)CC4)cc3)ncc2C(F)(F)F)c2ccccc21 (stereo not drawn) | – | – | – | Activity [6]: 97.7%
CCS(=O)(=O)n1cc(-c2nc(Nc3ccc(N4CCN(C(=O)CCCCC(=O)Nc5cccc6c5CN(C5CCC(=O)NC5=O)C6=O)CC4)cc3)ncc2C(F)(F)F)c2ccccc21 (stereo not drawn) | > 300 nM | 48.3% | 188 nM | –
CCS(=O)(=O)n1cc(-c2nc(Nc3ccc(N4CCN(CCCCCCCCC(=O)Nc5cccc6c5CN(C5CCC(=O)NC5=O)C6=O)CC4)cc3)ncc2C(F)(F)F)c2ccccc21 (stereo not drawn) | 33.2 nM | > 95% | 45.4 nM | –
CCS(=O)(=O)n1cc(-c2nc(Nc3ccc(N4CCN(CCCCC(=O)Nc5cccc6c5CN(C5CCC(=O)NC5=O)C6=O)CC4)cc3)ncc2C(F)(F)F)c2ccccc21 (stereo not drawn) | 82.5 nM | – | – | –
CCS(=O)(=O)n1cc(-c2nc(Nc3ccc(N4CCN(CCCCCCCCCC(=O)Nc5cccc6c5CN(C5CCC(=O)NC5=O)C6=O)CC4)cc3)ncc2C(F)(F)F)c2ccccc21 (stereo not drawn) | 68.7 nM | 80.6% | 48.6 nM | –
CCS(=O)(=O)n1cc(-c2nc(Nc3ccc(N4CCN(C(=O)CCCCCC(=O)Nc5cccc6c5CN(C5CCC(=O)NC5=O)C6=O)CC4)cc3)ncc2C(F)(F)F)c2ccccc21 (stereo not drawn) | 162 nM | 80.1% | 197 nM | –
CCS(=O)(=O)n1cc(-c2nc(Nc3ccc(N4CCNCC4)cc3)ncc2C(F)(F)F)c2ccccc21 | – | – | – | Kd [7]: 47.9 nM; Activity [6]: 106%
CCS(=O)(=O)n1cc(-c2nc(Nc3ccc(N4CCN(CCCCCCCC(=O)Nc5cccc6c5CN(C5CCC(=O)NC5=O)C6=O)CC4)cc3)ncc2C(F)(F)F)c2ccccc21 (stereo not drawn) | 17 nM | > 95% | 34.2 nM | –
CCS(=O)(=O)n1cc(-c2nc(Nc3ccc(N4CCN(C(=O)CCCCCCC(=O)Nc5cccc6c5CN(C5CCC(=O)NC5=O)C6=O)CC4)cc3)ncc2C(F)(F)F)c2ccccc21 (stereo not drawn) | 159 nM | 85.9% | 278 nM | –
COc1cc(N2CCC(N3CCN(C)CC3)CC2)ccc1Nc1ncc(Cl)c(Nc2ccccc2P(C)(C)=O)n1 [BRIGATINIB] | – | – | 562 nM | IC50 [8]: 911 nM; IC50 [9]: 404 nM; IC50 [10]: 444 nM; IC50 [11]: 110 nM
CCS(=O)(=O)n1cc(-c2nc(Nc3ccc(N4CCN(CC(=O)Nc5cccc6c5CN(C5CCC(=O)NC5=O)C6=O)CC4)cc3)ncc2C(F)(F)F)c2ccccc21 (stereo not drawn) | 30.1 nM | 89.3% | 88.7 nM | –
CCS(=O)(=O)n1cc(-c2nc(Nc3ccc(N4CCN(CCCC(=O)Nc5cccc6c5CN(C5CCC(=O)NC5=O)C6=O)CC4)cc3)ncc2C(F)(F)F)c2ccccc21 (stereo not drawn) | 49.7 nM | > 95% | 62.7 nM | –
CCS(=O)(=O)n1cc(-c2nc(Nc3ccc(N4CCN(CCCCCCCCCCC(=O)Nc5cccc6c5CN(C5CCC(=O)NC5=O)C6=O)CC4)cc3)ncc2C(F)(F)F)c2ccccc21 (stereo not drawn) | 281 nM | 77.3% | 161 nM | –
CCS(=O)(=O)n1cc(-c2nc(Nc3ccc(N4CCN(CCC(=O)Nc5cccc6c5CN(C5CCC(=O)NC5=O)C6=O)CC4)cc3)ncc2C(F)(F)F)c2ccccc21 (stereo not drawn) | 26.1 nM | 94.7% | 59.9 nM | –
CCS(=O)(=O)n1cc(-c2nc(Nc3ccc(N4CCN(C(=O)CCCC(=O)Nc5cccc6c5CN(C5CCC(=O)NC5=O)C6=O)CC4)cc3)ncc2C(F)(F)F)c2ccccc21 (stereo not drawn) | 153 nM | 80.4% | 198 nM | –
CCS(=O)(=O)n1cc(-c2nc(Nc3ccc(N4CCN(CCOCCOCC(=O)Nc5cccc6c5CN(C5CCC(=O)NC5=O)C6=O)CC4)cc3)ncc2C(F)(F)F)c2ccccc21 (stereo not drawn) | 25.3 nM | > 95% | 34.7 nM | –
O=C1CCC(N2C(=O)c3cccc(NCCOCCOCCOCCN4CCN(c5ccc(-c6ccc7c(c6)C(=O)N(C(C(=O)Nc6nccs6)c6ccccc6)C7)cn5)CC4)c3C2=O)C(=O)N1 (stereo not drawn) | – | – | – | DC50 [12]: 5.9 nM
